Laboratory results published in PubChem BioAssay AID192 (DTP/NCI, 2004).
Where “and” joins values, the source holds several entries; their conditions need not be identical. Equal values may be shown once. Toxic doses and inconclusive results are not listed.

Test system: BDF1 mice, B16 melanoma ip, median survival T/C
Experiment: NCI In Vivo Anticancer Drug Screen. Data for tumor model B16 Melanoma (intraperitoneal) in B6D2F1 (BDF1) mice
Details: endpoint: median survival time, higher = longer survival
Method in brief: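 Tumor-bearing mice received test compound or vehicle. Survival or tumor size was then measured in both groups. The treated-group figure was divided by the control-group figure.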

[1] = dose: 50.0 mg/kg/injection, schedule: Q01DX009 (ip), vehicle: saline with Tween-80
[2] = dose: 100.0 mg/kg/injection, schedule: Q01DX009 (ip), vehicle: saline with Tween-80
[3] = dose: 200.0 mg/kg/injection, schedule: Q01DX009 (ip), vehicle: saline with Tween-80
[4] = dose: 12.5 mg/kg/injection, schedule: Q01DX009 (ip), vehicle: saline
[5] = dose: 25.0 mg/kg/injection, schedule: Q01DX009 (ip), vehicle: saline
[6] = dose: 50.0 mg/kg/injection, schedule: Q01DX009 (ip), vehicle: saline
[7] = dose: 100.0 mg/kg/injection, schedule: Q01DX009 (ip), vehicle: saline
[8] = dose: 6.25 mg/kg/injection, schedule: Q01DX009 (ip), vehicle: saline
[9] = dose: 100.0 mg/kg/injection, schedule: Q01DX009 (ip), vehicle: Klucel (hydroxypropylcellulose) (HPC)
[10] = dose: 200.0 mg/kg/injection, schedule: Q01DX009 (ip), vehicle: Klucel (hydroxypropylcellulose) (HPC)
[11] = dose: 400.0 mg/kg/injection, schedule: Q01DX009 (ip), vehicle: Klucel (hydroxypropylcellulose) (HPC)
[12] = dose: 12.5 mg/kg/injection, schedule: Q01DX009 (ip), vehicle: Klucel (hydroxypropylcellulose) (HPC)
[13] = dose: 25.0 mg/kg/injection, schedule: Q01DX009 (ip), vehicle: Klucel (hydroxypropylcellulose) (HPC)

Compound: C(/C=C/C=C/N1CCCCC1)=[N+]1CCCCC1
- T/C (dose: 0.13 mg/kg/injection, schedule: Q01DX009 (ip), vehicle: saline): 96 % of control
- T/C (dose: 0.25 mg/kg/injection, schedule: Q01DX009 (ip), vehicle: saline): 107 % of control
- T/C (dose: 0.5 mg/kg/injection, schedule: Q01DX009 (ip), vehicle: saline): 101 % of control
- T/C (dose: 1.0 mg/kg/injection, schedule: Q01DX009 (ip), vehicle: saline): 105 % of control

Compound: CC(=O)Oc1ccc(Nc2c3ccccc3nc3ccccc23)cc1
- T/C (dose: 1.87 mg/kg/injection, schedule: Q01DX009 (ip), vehicle: saline with Tween-80): 110 % of control
- T/C (dose: 3.75 mg/kg/injection, schedule: Q01DX009 (ip), vehicle: saline with Tween-80): 114 % of control
- T/C (dose: 7.5 mg/kg/injection, schedule: Q01DX009 (ip), vehicle: saline with Tween-80): 121 % of control
- T/C (dose: 29.3 mg/kg/injection, schedule: Q01DX009 (ip), vehicle: saline with Tween-80): 197 % of control
- T/C (dose: 30.0 mg/kg/injection, schedule: Q01DX009 (ip), vehicle: saline with Tween-80): 156 % of control and 158 % of control
- T/C (dose: 40.0 mg/kg/injection, schedule: Q01DX009 (ip), vehicle: saline with Tween-80): 150 % of control

Compound: NC(CCCCNC(=O)c1ccccc1)C(=O)O (centres undefined)
- T/C [1]: 100 % of control
- T/C [2]: 100 % of control
- T/C [3]: 92 % of control
- T/C (dose: 400.0 mg/kg/injection, schedule: Q01DX009 (ip), vehicle: saline with Tween-80): 95 % of control

Compound: CCCC(=O)O
- T/C [4]: 106 % of control
- T/C [5]: 101 % of control
- T/C [6]: 92 % of control
- T/C [7]: 106 % of control

Compound: Cc1cc(/C=C\c2ccc3ccccc3[n+]2C)c(O)c2ncccc12
- T/C (dose: 6.25 mg/kg/injection, schedule: Q01DX009 (ip), vehicle: saline with Tween-80): 106 % of control
- T/C (dose: 12.5 mg/kg/injection, schedule: Q01DX009 (ip), vehicle: saline with Tween-80): 101 % of control
- T/C (dose: 25.0 mg/kg/injection, schedule: Q01DX009 (ip), vehicle: saline with Tween-80): 101 % of control

Compound: C1CNC2NCCNC2N1 (centres undefined)
- T/C [8]: 114 % of control
- T/C [4]: 120 % of control
- T/C [5]: 105 % of control
- T/C [7]: 109 % of control

Compound: NCCCOc1ccc([N+](=O)[O-])cc1Cl
- T/C [5]: 104 % of control
- T/C [6]: 104 % of control
- T/C [7]: 102 % of control

Compound: CC(=O)CC(=O)N1CCCC(C)C1 (centres undefined)
- T/C [9]: 116 % of control
- T/C [10]: 109 % of control
- T/C [11]: 110 % of control

Compound: CC(=O)OC1CCC(C2CCCCC2)CC1 (centres undefined)
- T/C [2]: 111 % of control
- T/C [3]: 118 % of control

Compound: OC1CCCC2CCC[N-]C12.OC1CCCC2CCC[N-]C12.[Mn+2] (centres undefined)
- T/C [12]: 109 % of control
- T/C [13]: 95 % of control
- T/C (dose: 50.0 mg/kg/injection, schedule: Q01DX009 (ip), vehicle: Klucel (hydroxypropylcellulose) (HPC)): 105 % of control
- T/C [9]: 94 % of control
- T/C [10]: 98 % of control

Compound: C=C(C)[C@@H]1CC[C@@H]2C(=CC[C@]3(C)C([C@H](C)CC/C=C(/C)C(=O)O)CC[C@@]23C)[C@@]1(C)CCC(=O)O (some centres undefined)
- T/C (dose: 22.5 mg/kg/injection, schedule: Q01DX009 (ip), vehicle: saline + alcohol): 98 % of control
- T/C (dose: 45.0 mg/kg/injection, schedule: Q01DX009 (ip), vehicle: saline + alcohol): 98 % of control

Compound: COc1cc2c(cc1OC)N(S(=O)(=O)c1ccc(C)cc1)CCCC2=O
- T/C (dose: 100.0 mg/kg/injection, schedule: Q04DX003 (ip), vehicle: Klucel (hydroxypropylcellulose) (HPC)): 87 % of control
- T/C (dose: 200.0 mg/kg/injection, schedule: Q04DX003 (ip), vehicle: Klucel (hydroxypropylcellulose) (HPC)): 100 % of control
- T/C (dose: 400.0 mg/kg/injection, schedule: Q04DX003 (ip), vehicle: Klucel (hydroxypropylcellulose) (HPC)): 92 % of control

Compound: CC(=O)SCC(C)CCl (centres undefined)
- T/C [1]: 100 % of control
- T/C [2]: 100 % of control

Compound: CC1(C)N=C(N)N=C(N)N1c1cc(Cl)ccc1Cl
- T/C (dose: 6.25 mg/kg/injection, schedule: Q01DX009 (ip), vehicle: Klucel (hydroxypropylcellulose) (HPC)): 94 % of control
- T/C [12]: 92 % of control
- T/C [13]: 89 % of control and 94 % of control

Compound: COc1ccc(Nc2ccnc3cc(Cl)ccc23)cc1CN(CCCl)CCCl
- T/C (dose: 1.25 mg/kg/injection, schedule: Q01DX009 (ip), vehicle: Klucel (hydroxypropylcellulose) (HPC)): 118 % of control
- T/C (dose: 2.5 mg/kg/injection, schedule: Q01DX009 (ip), vehicle: Klucel (hydroxypropylcellulose) (HPC)): 94 % of control

Compound: COC(=O)c1ccc(Cl)nc1
- T/C [9]: 94 % of control
- T/C [11]: 94 % of control

Compound: Cc1ccc(NC(=O)c2ccc(Cl)cc2)cc1Cl
- T/C (dose: 75.0 mg/kg/injection, schedule: Q01DX009 (ip), vehicle: Klucel (hydroxypropylcellulose) (HPC)): 100 % of control
- T/C (dose: 150.0 mg/kg/injection, schedule: Q01DX009 (ip), vehicle: Klucel (hydroxypropylcellulose) (HPC)): 115 % of control
- T/C (dose: 300.0 mg/kg/injection, schedule: Q01DX009 (ip), vehicle: Klucel (hydroxypropylcellulose) (HPC)): 88 % of control

Compound: C=C(Br)CNS(C)(=O)=O
- T/C [8]: 120 % of control
- T/C [4]: 110 % of control
- T/C [5]: 113 % of control

Compound: CC1C2CCC(C2)C1C(=O)O (centres undefined)
- T/C (dose: 100.0 mg/kg/injection, schedule: Q04DX003 (ip), vehicle: other): 102 % of control
- T/C (dose: 200.0 mg/kg/injection, schedule: Q04DX003 (ip), vehicle: other): 102 % of control
- T/C (dose: 400.0 mg/kg/injection, schedule: Q04DX003 (ip), vehicle: other): 89 % of control

Compound: COC(=O)c1cc([N+](=O)[O-])cc([N+](=O)[O-])c1Br
- T/C (dose: 0.37 mg/kg/injection, schedule: Q01DX009 (ip), vehicle: Klucel (hydroxypropylcellulose) (HPC)): 95 % of control
- T/C (dose: 0.75 mg/kg/injection, schedule: Q01DX009 (ip), vehicle: Klucel (hydroxypropylcellulose) (HPC)): 101 % of control
- T/C (dose: 1.5 mg/kg/injection, schedule: Q01DX009 (ip), vehicle: Klucel (hydroxypropylcellulose) (HPC)): 88 % of control
